Article PMC7761830, “Structure-Based Virtual Screening of Ultra-Large Library Yields Potent Antagonists for a Lipid GPCR” (Biomolecules, 2020)

Key:
wild-type CysLT1R = target: T1, wild-type CysLT1R (Homo sapiens, UniProt Q9Y271); assay: IP1 production assay, antagonist mode, co-stimulation with EC80 LTD4; assay type: cell-based; details: for inhibition at 30 µM: HEK293, compound 30 µM, LTD4 at EC80, HEK293, wild-type CysLT1R, read-out: inhibition of LTD4-induced IP1 production, single-concentration screen; for Emax: HEK293, read-out: CysLT1R (LTD4) % Max Inhibition ± SEM; for extent of inhibition of LTD4-mediated response at CysLT1R (in words): antagonist mode, 1.5 to 100 µM
T1 construct: expressed in transfected cells; host or cells: HEK293 (ATCC CRL-1573), transient transfection with Lipofectamine 3000
T1 sequence (Q9Y271 1-337): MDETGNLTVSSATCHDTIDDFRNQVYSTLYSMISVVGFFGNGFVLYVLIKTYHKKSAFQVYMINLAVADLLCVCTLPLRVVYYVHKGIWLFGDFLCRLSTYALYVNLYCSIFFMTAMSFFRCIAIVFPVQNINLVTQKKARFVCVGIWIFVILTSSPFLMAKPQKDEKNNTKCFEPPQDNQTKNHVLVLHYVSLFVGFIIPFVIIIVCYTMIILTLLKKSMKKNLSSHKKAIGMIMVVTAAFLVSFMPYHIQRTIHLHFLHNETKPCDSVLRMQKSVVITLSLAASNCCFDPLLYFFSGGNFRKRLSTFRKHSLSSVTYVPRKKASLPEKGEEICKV
Description: (§1) For this assay, we used the Cisbio IP-One kit as previously described. […] At 48 h post-transfection, the media was removed and the cells were washed with fresh Hank’s Balanced Salt Solution (HBSS). […] After compound stimulation, the cells were incubated for 1 h at 37 °C and stimulated with IP1-D2 and Ab-Crypt reagents in Lysis Buffer. The cells were then incubated at room temperature for an additional hour. […] Normalized data were plotted using either the three-parameter or four-parameter EC50/IC50 fits of GraphPad Prism 8 (San Diego). […] Data represent the means ± SEM of at least three independent experiments performed in quadruplicate.

wild-type CysLT2R = target: T2, wild-type CysLT2R (Homo sapiens, UniProt Q9NS75); assay: as above; assay type: cell-based; details: for inhibition at 30 µM: HEK293, compound 30 µM, LTD4 at EC80, HEK293, wild-type CysLT2R, read-out: inhibition of LTD4-induced IP1 production, single-concentration screen; for Emax: HEK293, read-out: CysLT2R (LTD4) % Max Inhibition ± SEM
T2 construct: expressed in transfected cells; host or cells: HEK293 (ATCC CRL-1573), transient transfection with Lipofectamine 3000
T2 sequence (Q9NS75 1-346): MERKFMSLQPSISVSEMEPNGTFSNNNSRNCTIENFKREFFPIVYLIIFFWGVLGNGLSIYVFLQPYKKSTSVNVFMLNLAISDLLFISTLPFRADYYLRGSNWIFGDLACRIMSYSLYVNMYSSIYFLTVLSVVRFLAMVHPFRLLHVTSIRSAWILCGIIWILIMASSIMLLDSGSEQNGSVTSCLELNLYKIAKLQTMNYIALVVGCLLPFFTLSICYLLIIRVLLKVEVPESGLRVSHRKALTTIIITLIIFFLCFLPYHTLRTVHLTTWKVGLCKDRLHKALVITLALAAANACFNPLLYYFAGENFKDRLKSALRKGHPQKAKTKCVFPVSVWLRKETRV
Description: as §1

Compound	remaining activity at 30 µM (wild-type CysLT1R) [%]	remaining activity at 30 µM (wild-type CysLT2R) [%]	other results
O=C(NCC(F)(F)F)c1cccc(NC(=O)C2C3C=CC(C3)C2C(=O)O)c1 (stereo not shown) [BRI-12346]	66.6	90.6	
CC(Sc1nnc(-c2c[nH]c3ccccc23)n1C1CC1)C(=O)NC(N)=O (stereo not shown) [BRI-12347]	79.7	104	
COc1ccc(C2=NN(C(=O)CCC(=O)O)C(c3cccs3)C2)cc1 (stereo not shown) [BRI-12348]	89.5	107	
NC(=O)NC(=O)COC(=O)c1ccccc1Nc1cccc(C(F)(F)F)c1 [BRI-12349]	80	70.5	
Cc1cccc(-c2nnc(SCc3ccc(C(N)=O)cc3)n2CC(=O)O)c1 [BRI-12350]	68.4	79.8	
CC(Sc1ccccc1C(=O)O)C(=O)N1CC(=O)Nc2ccccc21 (stereo not shown) [BRI-12351]	77.6	82.6	
O=C(O)c1cc(S(=O)(=O)NCCc2ccc(Cl)cc2)ccc1O [BRI-12352]	73.4	87.8	
C=C1c2ccccc2C(=O)N1CCC(=O)Nc1cc(C(N)=O)cc(C(N)=O)c1 [BRI-12353]	83.4	96.8	
O=C(Cn1ccc(=O)[nH]c1=O)Nc1cccc(C=Cc2ccccn2)c1 [BRI-12354]	72.7	92.8	
c1ccc(C(CNc2ccc3nnnn3n2)c2c[nH]c3ccccc23)cc1 (stereo not shown) [BRI-12355]	76.8	91.8	
COc1ccc(NC(=O)CN(C)C(=O)c2ccccc2-n2cnnn2)cc1 [BRI-12357]	77	65.7	
CC(Sc1nc(Nc2ccccc2)c2ccccc2n1)C(=O)N1CCNC1=O (stereo not shown) [BRI-12358]	58	73.5	
Cc1ccc(-c2nnc(SCC(=O)NC(N)=O)nc2-c2ccc(C)cc2)cc1 [BRI-12360]	74.3	90.5	
O=C(O)CC(NC(=O)c1ccc2[nH]ccc2c1)c1ccccc1 (stereo not shown) [BRI-12361]	83.4	91.3	
O=C(Nc1cnc2[nH]ccc2c1)c1cnc2c(c1)c(=O)[nH]c(=O)n2Cc1ccccc1 [BRI-12401]	89.5	35.6	inhibition at 30 µM (wild-type CysLT2R): ≥ 50%; Emax (wild-type CysLT2R): 19 ± 15%
Cn1nc(C2CC2)nc1CC(=O)Nc1ccc(N2CCNC2=O)cc1 [BRI-12402]	66.8	40.2	inhibition at 30 µM (wild-type CysLT2R): ≥ 50%; Emax (wild-type CysLT2R): 8 ± 4%
O=C(NC(C(=O)O)c1ccccc1F)c1ccc(Cl)c(NC(=O)c2cccs2)c1 (stereo not shown) [BRI-12403]	89.5	72	
CN(CCOc1ccc(OCc2ccccc2)cc1)C(=O)c1cc(=O)[nH]c2ccc(F)cc12 [BRI-12404]	83.8	67.3	
O=C(COC1CCCc2ccccc21)Nc1cccc(NC(=O)NCc2ccncc2)c1 (stereo not shown) [BRI-12405]	70	40.6	inhibition at 30 µM (wild-type CysLT2R): ≥ 50%; Emax (wild-type CysLT2R): 23 ± 6%
CC(C)c1cc(C(=O)Nc2ccc(C(=O)NCC(=O)O)cc2)nn1C [BRI-12406]	79.6	68.4	

Compound	remaining activity at 30 µM (wild-type CysLT1R) [%]	remaining activity at 30 µM (wild-type CysLT2R) [%]	other results
CC(C)(C)CNC(=O)c1ccc(C(=O)Nc2ccccc2CC(=O)O)cc1 [BRI-12407]	83	70.4	
O=C(NCC(O)c1cccc(OCc2ccccc2)c1)c1cc(=O)[nH]c2ccc(F)cc12 (stereo not shown) [BRI-12409]	73.3	62.3	
NS(=O)(=O)c1cncc(-c2noc(CN(Cc3ccccc3)c3ccccc3)n2)c1 [BRI-12410]	45.2	46.7	Ki (wild-type CysLT1R): 0.59 ± 0.12 µM; inhibition at 30 µM (wild-type CysLT1R): ≥ 50%; Emax (wild-type CysLT1R): 64 ± 7%; extent of inhibition of LTD4-mediated response at CysLT1R (in words) (wild-type CysLT1R): partial antagonism; inhibition at 30 µM (wild-type CysLT2R): ≥ 50%; Emax (wild-type CysLT2R): 18 ± 9%
Cc1cccc(COc2ccc(CNS(=O)(=O)N(C)CCC(=O)O)cc2)c1 [BRI-12411]	55.9	57.3	Ki (wild-type CysLT1R): 0.72 ± 0.16 µM; inhibition at 30 µM (wild-type CysLT1R): ≥ 50%; Emax (wild-type CysLT1R): 66 ± 18%; extent of inhibition of LTD4-mediated response at CysLT1R (in words) (wild-type CysLT1R): partial antagonism
O=C(O)CCC(NC(=O)c1cccc(C(F)(F)F)c1)c1ccccc1 (stereo not shown) [BRI-12412]	91.4	63.4	
O=C(O)CNC(=O)c1ccc(S(=O)(=O)Nc2ccc3sncc3c2)cc1 [BRI-12413]	80	49.5	inhibition at 30 µM (wild-type CysLT2R): ≥ 50%; Emax (wild-type CysLT2R): 5 ± 6%
O=C(Cc1cccc(OCc2cccnc2)c1)Nc1cccc(-n2ccc(C(=O)O)n2)c1 [BRI-12414]	81.8	84.9	
O=C(CCCc1ccc2[nH]c(=O)[nH]c2c1)Nc1ccc(C(=O)Nc2cccnc2)cc1 [BRI-12415]	85.1	56.8	
O=C1COc2cc(C(=O)N3CCC(c4cc5ccccc5[nH]4)CC3)c(Cl)cc2N1 [BRI-12416]	70.8	80.4	
NC(=O)c1ccc(CNC(=O)c2ccc(NC(=O)c3ccc(Cl)c(Cl)c3)cc2O)o1 [BRI-12418]	65.4	67.9	
O=C(Nc1ccccc1C(=O)N1CCn2ncnc2C1)c1ccc(Cl)cc1 [BRI-12419]	85.7	48.1	
CC(C)NC(=O)Nc1ccc(C(=O)Nc2ccc(OCC(=O)O)c(Cl)c2)cc1 [BRI-12420]	91.7	64.2	
O=C(O)CC(CNS(=O)(=O)c1ccc(Oc2ccc(Cl)cc2)cc1)C(=O)O (stereo not shown) [BRI-12421]	82.6	57.3	
Cc1ccnc(-c2ccc(NC(=O)COC(C)C)cc2)n1 [BRI-12422]	79.8	76.5	
CC(O)CN(C(=O)Nc1ccc2c(c1)CCCC2=O)C1CC1 (stereo not shown) [BRI-12423]	89.7	68.2	
Cc1onc(N)c1S(=O)(=O)Nc1ccc(N2CCCC2)cc1C(=O)O [BRI-12425]	84.2	79.8	
NS(=O)(=O)c1cc(C(=O)NCCc2ccc(OCC(=O)O)cc2)cs1 [BRI-12426]	72.6	41.8	inhibition at 30 µM (wild-type CysLT2R): ≥ 50%; Emax (wild-type CysLT2R): 5 ± 9%
O=C(O)COc1cccc(CNC(=O)c2cnc(-c3ncccn3)s2)c1 [BRI-12427]	78.7	42.4	inhibition at 30 µM (wild-type CysLT2R): ≥ 50%; Emax (wild-type CysLT2R): 15 ± 13%
Cc1ccc(C(=O)Nc2ccc(C(=O)NCC(=O)O)cc2)c(O)c1 [BRI-12428]	90.3	59.5	
